Experimental data: patent US20060281791A1, “Methods of increasing proliferation of adult mammalian cardiomyocytes through p38 map kinase inhibition” (CHILDREN'S MEDICAL CENTER CORPORATION, priority 2005, published 2006)

Legend:
[1] = test system: neonatal (P2) cardiomyocytes; test: Induction of DNA synthesis (BrdU incorporation) in neonatal cardiomyocytes; assay type: cell-based, rat; conditions: BrdU labeling period 24 to 72 hours; harvested after 72 hours; optimal concentration of stimulus
Protocol: Animal experiments were performed in accordance with guidelines of Children's Hospital, Boston and UCLA. Ventricular cardiomyocytes from fetal (E19), 2-day-old (P2) and adult (250-350 g) Wistar rats (Charles River) were isolated as described with minor modifications (Engel et al. 1999; Engel et al. 2003). After digestion of fetal or neonatal hearts (0.14 mg/ml collagenase II (Invitrogen), 0.55 mg/ml pancreatin (Sigma)) cells were cultured in DMEM/F12 (GIBCO) containing 3 mM Na-pyruvate, 0.2% BSA, 0.1 mM ascorbic acid (Sigma), 0.5% Insulin-Transferrin-Selenium (100×), penicillin (100 U/ml), streptomycin (100 μg/ml), and 2 mM L-glutamine (GIBCO). Adult cardiomyocytes were cultured for 1 day in standard medium (DMEM, 25 mM Hepes, 5 mM taurine, 5 mM creatine, 2 mM L-carnitine (Sigma), 20 U/ml insulin (GIBCO), 0.2% BSA, penicillin (100 U/ml), and streptomycin (100 μg/ml)). Cells were stimulated in culture medium without BSA containing 2 mM L-glutamine. Neonatal and adult cardiomyocytes were initially cultured for 48 h in the presence of 20 μM cytosine β-D-arabinofuranoside (araC, Sigma) and 5% horse serum before stimulation to prevent proliferation of non-myocytes. Adult cardiomyocytes were incubated another 3 days with araC during stimulation. Neonatal cardiomyocytes were stimulated every day with growth factors for BrdU and H3P analyses (FGF1 and NRG-1-1β at 50 ng/ml, IL-1β at 100 ng/ml, R&D Systems, all diluted in 0.1% BSA/PBS). SB203580 and LY294002 (Calbiochem) was added every day. Adult cardiomyocytes were stimulated with fresh medium and SB203580 every 3 days.
Staining was performed as described (Supplemental Table S3) (Engel et al. 1999; Engel et al. 2003). Immune complexes were detected with ALEXA 350, ALEXA 488 or ALEXA 594-conjugated secondary antibodies (1:200, Molecular Probes). DNA was visualised with DAPI (4′,6′-diamidino-2-phenylindole, 0.5 μg/ml, Sigma). For BrdU, cells were cultured in 30 μM BrdU, incubated after permeabilization for 90 min in 2N HCl/1% triton X-100 and washed 3 times in PBS.
Eighteen to 40 hearts of 3 different litters were used for quantitative analyses of maximal areas. For immunofluorescence analyses 1,500 fetal or neonatal cardiomyocytes were counted. For adult cardiomyocyte analyses in vitro the following number of cells were counted: 500-2,000 for BrdU or Ki67, 9,000-25,000 for H3P, and 12,000-45,000 for aurora B. For in vivo MKK3bE and p38α knockout experiments 2 different litters were used. We counted 1,500-2,000 cells in each apex, left and right ventricle per heart. For adult experiments we analyzed 2 p38α^Δ/Δ and 2 p38^lox/lox hearts (24 sections each). Statistical significance was determined using Student's t test.
Several growth factors have a limited capacity to induce DNA synthesis in neonatal cardiomyocytes, including FGF1 (Pasumarthi and Field 2002). We screened 45 extracellular factors at two different concentrations for their ability to induce BrdU incorporation in neonatal (P2) cardiomyocytes. […] We confirmed previous studies showing that FGF1, IL-1β, and NRG-1-β1 are potent growth factors for neonatal cardiomyocytes (Supplemental Table S2) (Pasumarthi and Field 2002 Circ Res 90: 1044-54).
Inhibition of p38 activity by SB203580 increased BrdU incorporation 2.8-fold in neonatal cardiomyocytes stimulated with FGF1 (p<0.01). Similar results were obtained after stimulation with IL-1β and NRG-1-β1. Thus, inhibition of p38 activity augments growth factor-mediated DNA synthesis in neonatal cardiomyocytes.

adult cardiomyocytes = test: Ki67 staining of adult cardiomyocytes; assay type: cell-based, rat; conditions: 12 days of stimulation
Protocol: Animal experiments were performed in accordance with guidelines of Children's Hospital, Boston and UCLA. Ventricular cardiomyocytes from fetal (E19), 2-day-old (P2) and adult (250-350 g) Wistar rats (Charles River) were isolated as described with minor modifications (Engel et al. 1999; Engel et al. 2003). After digestion of fetal or neonatal hearts (0.14 mg/ml collagenase II (Invitrogen), 0.55 mg/ml pancreatin (Sigma)) cells were cultured in DMEM/F12 (GIBCO) containing 3 mM Na-pyruvate, 0.2% BSA, 0.1 mM ascorbic acid (Sigma), 0.5% Insulin-Transferrin-Selenium (100×), penicillin (100 U/ml), streptomycin (100 μg/ml), and 2 mM L-glutamine (GIBCO). […]
Staining was performed as described (Supplemental Table S3) (Engel et al. 1999; Engel et al. 2003). Immune complexes were detected with ALEXA 350, ALEXA 488 or ALEXA 594-conjugated secondary antibodies (1:200, Molecular Probes). […]
Eighteen to 40 hearts of 3 different litters were used for quantitative analyses of maximal areas. For immunofluorescence analyses 1,500 fetal or neonatal cardiomyocytes were counted. For adult cardiomyocyte analyses in vitro the following number of cells were counted: 500-2,000 for BrdU or Ki67, 9,000-25,000 for H3P, and 12,000-45,000 for aurora B. For in vivo MKK3bE and p38α knockout experiments 2 different litters were used. We counted 1,500-2,000 cells in each apex, left and right ventricle per heart. […]

[2] = test system: myocardial infarction in adult rats; test: Scar volume (trichrome stain) after myocardial infarction; assay type: in vivo, rat
Protocol: To determine whether p38 inhibition/FGF1 stimulation can induce cardiomyocyte proliferation in vivo and whether it has a positive effect on cardiac function after cardiac injury we created myocardial infarctions (MI) in adult rats (250 g) by coronary artery ligation. The p38 inhibitor SB203580 HCl or its vehicle, saline, were injected intraperitoneal every three days for the first month of the study. FGF1 or its carrier BSA was injected mixed with self-assembling peptides once into the infarct border zone immediately after coronary artery ligation. We injecting a total of 80 μl of 400 ng/ml FGF1, given at 3 different injection sites, into 400 mg of infarcted myocardium estimated to deliver a FGF 1 concentration to the cardiomyocytes of approximately 50 to 100 ng/ml. Animals were analyzed 24 hours, 2 weeks, and 3 month after surgery. […]
To determine if p38 inhibition and FGF1 stimulation have an effect on infarct size we determined scar volume using trichrome stain. […]
Scar formation was determined as fibrotic area/(fibrotic+non-fibrotic area) based on all sections. The thinning index is a ratio of the amount of wall thinning in the infarct normalized to the thickness of the septum and is calculated by dividing the minimal infarct wall thickness with maximal septal wall thickness (2 weeks: section 1 to 4, 3 month: section 1 to 6 from base).

## FGF1: growth factor FGF1 (R&D Systems)
[1]
  % of BrdU positive neonatal cardiomyoctes: 61.8 ± 2.1%
Adult cardiomyocytes
  Ki67-positive adult cardiomyocytes: 1.7±0.5%
[2]; 2 weeks
  scar size (scar volume): significantly reduced
[2]; 3 month
  scar size (scar volume): significantly reduced
